Data on one compound can be found in publication PMC10098502, “Characterization of the molecular mechanisms of silicon uptake in coccolithophores” (Environmental Microbiology, 2022).

Usually Km stands for the substrate concentration at which the rate is half of its maximum.

In this assay the test system is T1, CbSITL.
T1 construct: gene SITL
Particulars: Na+-dependent; 150 mM external NaCl, 50 mM Tris pH 7.4, internal 150 mM KCl and 6 mM Zn acetate, valinomycin; sigmoidal rate curve.

On to `O[Si](O)(O)O` [silicic acid], for which the Km is 31.8 ± 2.5 µM.
